Several values for one entry are separate records, joined by “and”; a condition that tells them apart may be missing. Equal values may be shown once. Inconclusive results and toxic doses are left out.
Test system: L1210 leukemia ip in BDF1 mice, survival T/C
Test: NCI In Vivo Anticancer Drug Screen. Data for tumor model L1210 Leukemia (intraperitoneal) in B6D2F1 (BDF1) mice
Conditions: endpoint: mean survival time, higher = longer survival
Method in brief: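 Tumor cells were implanted, animals were treated, and survival was followed. The result divides the treated measurement by the vehicle-control measurement.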

[1] = dose: 100.0 mg/kg/injection, schedule: Q01DX009 (ip), vehicle: Klucel (hydroxypropylcellulose) (HPC)
[2] = dose: 100.0 mg/kg/injection, schedule: Q04DX003 (ip), vehicle: Klucel (hydroxypropylcellulose) (HPC)
[3] = dose: 200.0 mg/kg/injection, schedule: Q01DX009 (ip), vehicle: Klucel (hydroxypropylcellulose) (HPC)
[4] = dose: 200.0 mg/kg/injection, schedule: Q04DX003 (ip), vehicle: Klucel (hydroxypropylcellulose) (HPC)
[5] = dose: 400.0 mg/kg/injection, schedule: Q01DX009 (ip), vehicle: Klucel (hydroxypropylcellulose) (HPC)
[6] = dose: 400.0 mg/kg/injection, schedule: Q04DX003 (ip), vehicle: Klucel (hydroxypropylcellulose) (HPC)
[7] = dose: 100.0 mg/kg/injection, schedule: Q04DX002 (ip), vehicle: saline with Tween-80
[8] = dose: 200.0 mg/kg/injection, schedule: Q04DX002 (ip), vehicle: saline with Tween-80
[9] = dose: 400.0 mg/kg/injection, schedule: Q04DX002 (ip), vehicle: saline with Tween-80
[10] = dose: 100.0 mg/kg/injection, schedule: Q04DX002 (ip), vehicle: Klucel (hydroxypropylcellulose) (HPC)
[11] = dose: 200.0 mg/kg/injection, schedule: Q04DX002 (ip), vehicle: Klucel (hydroxypropylcellulose) (HPC)
[12] = dose: 400.0 mg/kg/injection, schedule: Q04DX002 (ip), vehicle: Klucel (hydroxypropylcellulose) (HPC)

COCCCN=C(N)c1ccc(NC(=O)c2ccc(C(=O)Nc3ccc(C(N)=NCCCOC)cc3)c(Cl)c2)cc1
T/C (dose: 0.47 mg/kg/injection, schedule: Q01DX Z (ip), vehicle: saline): 92 % of control
T/C (dose: 0.94 mg/kg/injection, schedule: Q01DX Z (ip), vehicle: saline): 91 % of control
T/C (dose: 1.88 mg/kg/injection, schedule: Q01DX Z (ip), vehicle: saline): 94 % of control
T/C (dose: 3.75 mg/kg/injection, schedule: Q01DX Z (ip), vehicle: saline): 111 % of control
T/C (dose: 7.5 mg/kg/injection, schedule: Q01DX Z (ip), vehicle: saline): 171 % of control
T/C (dose: 7.5 mg/kg/injection, schedule: Q01DX Z (oral), vehicle: saline): 103 % of control
T/C (dose: 15.0 mg/kg/injection, schedule: Q01DX Z (ip), vehicle: saline): 89 % of control
T/C (dose: 15.0 mg/kg/injection, schedule: Q01DX Z (oral), vehicle: saline): 111 % of control
T/C (dose: 30.0 mg/kg/injection, schedule: Q01DX Z (oral), vehicle: saline): 94 % of control
T/C (dose: 60.0 mg/kg/injection, schedule: Q01DX Z (oral), vehicle: saline): 102 % of control

CCC(N)CO (stereo not given)
T/C (dose: 100.0 mg/kg/injection, schedule: Q01DX001 (ip), vehicle: saline): 97 % of control
T/C (dose: 200.0 mg/kg/injection, schedule: Q01DX001 (ip), vehicle: saline): 106 % of control

O=C(Nc1ccc(Nc2ccncc2)cc1)c1ccc([N+](=O)[O-])cc1
T/C [1]: 105 % of control
T/C [2]: 103 % of control
T/C [3]: 92 % of control
T/C [4]: 98 % of control
T/C [5]: 105 % of control
T/C [6]: 95 % of control

CN(C)C(=S)[S][Sb]([c]1ccccc1)[c]1ccccc1
T/C (dose: 100.0 mg/kg/injection, schedule: Q01DX001 (ip), vehicle: other): 96 % of control

O=C(O)C(Br)C(Br)C(=O)Nc1cccc(Cl)c1 (stereo not given)
T/C [7]: 91 % of control
T/C [8]: 95 % of control
T/C [9]: 88 % of control

OC1(c2ccccc2)CC2CCCCC2c2ccccc21 (stereo not given)
T/C (dose: 12.0 mg/kg/injection, schedule: Q01DX001 (ip), vehicle: saline): 98 % of control
T/C (dose: 25.0 mg/kg/injection, schedule: Q01DX001 (ip), vehicle: saline): 100 % of control
T/C (dose: 50.0 mg/kg/injection, schedule: Q01DX001 (ip), vehicle: saline): 102 % of control

O=C(O)C(Cc1ccccc1)NC(=O)C(F)(F)F (stereo not given)
T/C (dose: 100.0 mg/kg/injection, schedule: Q04DX003 (ip), vehicle: other): 90 % of control
T/C (dose: 200.0 mg/kg/injection, schedule: Q04DX003 (ip), vehicle: other): 89 % of control

CC1(C)CC(OP(=O)(CCl)OC2CC(C)(C)N(O)C(C)(C)C2)CC(C)(C)N1O
T/C (dose: 100.0 mg/kg/injection, schedule: Q04DX002 (ip), vehicle: water): 97 % of control
T/C (dose: 200.0 mg/kg/injection, schedule: Q04DX002 (ip), vehicle: water): 97 % of control

COC(=O)C[CH2][Sn]([Br])([Br])[c]1ccccc1
T/C [7]: 95 % of control

CC[CH2][Sn]([Cl])([Cl])[CH2]CC.Oc1ccccc1C=NCCN=Cc1ccccc1O
T/C (dose: 2.5 mg/kg/injection, schedule: Q01DX009 (ip), vehicle: saline with Tween-80): 101 % of control and 109 % of control
T/C (dose: 5.0 mg/kg/injection, schedule: Q01DX009 (ip), vehicle: saline with Tween-80): 113 % of control
T/C (dose: 6.6 mg/kg/injection, schedule: Q01DX009 (ip), vehicle: saline with Tween-80): 87 % of control

O=C1Cc2ccccc2C(=O)N1
T/C (dose: 25.0 mg/kg/injection, schedule: Q01DX Z (ip), vehicle: carboxymethylcellulose (CMC)): 91 % of control
T/C (dose: 40.0 mg/kg/injection, schedule: Q01DX Z (ip), vehicle: carboxymethylcellulose (CMC)): 104 % of control
T/C (dose: 60.0 mg/kg/injection, schedule: Q01DX Z (ip), vehicle: carboxymethylcellulose (CMC)): 112 % of control
T/C (dose: 90.0 mg/kg/injection, schedule: Q01DX Z (ip), vehicle: carboxymethylcellulose (CMC)): 100 % of control
T/C (dose: 100.0 mg/kg/injection, schedule: Q04DX003 (ip), vehicle: saline sonified): 100 % of control
T/C (dose: 200.0 mg/kg/injection, schedule: Q04DX003 (ip), vehicle: saline sonified): 99 % of control
T/C (dose: 400.0 mg/kg/injection, schedule: Q04DX003 (ip), vehicle: saline sonified): 100 % of control

O=C(C[n+]1ccccc1)N/N=C/c1cccc([N+](=O)[O-])c1
T/C (dose: 50.0 mg/kg/injection, schedule: Q01DX009 (ip), vehicle: saline with Tween-80): 91 % of control

COc1ccc(C2OCC(c3ccccc3)O2)cc1 (stereo not given)
T/C (dose: 222.0 mg/kg/injection, schedule: Q01DX Z (ip), vehicle: methylcellulose (MC)): 93 % of control
T/C (dose: 500.0 mg/kg/injection, schedule: Q01DX Z (ip), vehicle: methylcellulose (MC)): 93 % of control

O=C(NCCCCNC(=O)Nc1cccc(C2=NCCCN2)c1)Nc1cccc(C2=NCCCN2)c1
T/C (dose: 0.65 mg/kg/injection, schedule: Q01DX Z (ip), vehicle: carboxymethylcellulose (CMC)): 97 % of control
T/C (dose: 1.3 mg/kg/injection, schedule: Q01DX Z (ip), vehicle: carboxymethylcellulose (CMC)): 97 % of control

CCC[CH2][Sn]1([CH2]CCC)[CH2]CC(=O)[O]1
T/C [7]: 103 % of control
T/C [8]: 95 % of control
T/C [9]: 92 % of control

C=C1C(=O)OC2CC(C)C(C(O)CC(C)O)=CCC12 (stereo not given)
T/C (dose: 50.0 mg/kg/injection, schedule: Q01DX001 (ip), vehicle: water): 95 % of control
T/C (dose: 100.0 mg/kg/injection, schedule: Q01DX001 (ip), vehicle: water): 95 % of control

CC(C)(C(=O)[O-])C(=O)O.[Co+3].[NH2-].[NH2-].[NH2-].[NH2-].[NH2-].[O-][Cl+3]([O-])([O-])O
T/C (dose: 100.0 mg/kg/injection, schedule: Q04DX002 (ip), vehicle: saline): 92 % of control
T/C (dose: 200.0 mg/kg/injection, schedule: Q04DX002 (ip), vehicle: saline): 95 % of control
T/C (dose: 400.0 mg/kg/injection, schedule: Q04DX002 (ip), vehicle: saline): 106 % of control

CC(C)(C)c1ccc(Oc2ccc([N+](=O)[O-])cc2[N+](=O)[O-])c(Br)c1
T/C [1]: 96 % of control
T/C [10]: 104 % of control
T/C [3]: 96 % of control
T/C [11]: 108 % of control
T/C [5]: 96 % of control
T/C [12]: 111 % of control

N#CC(O)C1(O)CCCCC1 (stereo not given)
T/C (dose: 6.25 mg/kg/injection, schedule: Q04DX003 (ip), vehicle: saline sonified): 101 % of control
T/C (dose: 12.5 mg/kg/injection, schedule: Q04DX003 (ip), vehicle: saline sonified): 101 % of control
T/C (dose: 25.0 mg/kg/injection, schedule: Q04DX003 (ip), vehicle: saline sonified): 94 % of control

O=C(O)c1ccsc1Cc1cccs1
T/C (dose: 100.0 mg/kg/injection, schedule: Q01DX001 (ip), vehicle: Klucel (hydroxypropylcellulose) (HPC)): 101 % of control
T/C (dose: 100.0 mg/kg/injection, schedule: Q01DX009 (ip), vehicle: saline with Tween-80): 97 % of control and 89 % of control
T/C (dose: 200.0 mg/kg/injection, schedule: Q01DX001 (ip), vehicle: Klucel (hydroxypropylcellulose) (HPC)): 92 % of control
T/C (dose: 200.0 mg/kg/injection, schedule: Q01DX009 (ip), vehicle: saline with Tween-80): 96 % of control and 100 % of control
T/C (dose: 400.0 mg/kg/injection, schedule: Q01DX001 (ip), vehicle: Klucel (hydroxypropylcellulose) (HPC)): 106 % of control
T/C (dose: 400.0 mg/kg/injection, schedule: Q01DX009 (ip), vehicle: saline with Tween-80): 93 % of control and 89 % of control

CC(c1ccc(Br)cc1)N(C)C (stereo not given)
T/C (dose: 10.0 mg/kg/injection, schedule: Q01DX001 (ip), vehicle: saline): 102 % of control
T/C (dose: 20.0 mg/kg/injection, schedule: Q01DX001 (ip), vehicle: saline): 93 % of control
T/C (dose: 40.0 mg/kg/injection, schedule: Q01DX001 (ip), vehicle: saline): 98 % of control
T/C (dose: 80.0 mg/kg/injection, schedule: Q01DX001 (ip), vehicle: saline): 98 % of control

O=[N+]([O-])c1cccc(C=Nc2ccc(CCO)cc2)c1
T/C [10]: 104 % of control
T/C [11]: 121 % of control
T/C [12]: 107 % of control

COc1cccc(CCNC(=O)CC#N)c1OC
T/C (dose: 100.0 mg/kg/injection, schedule: Q01DX009 (ip), vehicle: saline): 90 % of control
T/C [2]: 100 % of control
T/C (dose: 200.0 mg/kg/injection, schedule: Q01DX009 (ip), vehicle: saline): 95 % of control
T/C [4]: 102 % of control
T/C [6]: 97 % of control
